Measured values published in the NIST ThermoML archive (doi:10.1021/acs.jced.8b01135).

Assay: xn = mol fraction of the nth substance listed
Settings: 102 kPa, Liquid; for speed of sound: Frequency=3 MHz, Single path-length method; for mass density: Vibrating tube method; for viscosity: Concentric cylinders viscometry

CCCCCCC1CCCCC1 [hexylcyclohexane] + CCCCCCCCCCCC
Settings | mass density [kg/m3] | speed of sound [m/s] | viscosity [mPa·s]
288.15 K, x1 = 0.1009 | 757.85 | 1322.7 | –
288.15 K, x1 = 0.1998 | 763.33 | 1328.2 | –
288.15 K, x1 = 0.3001 | 768.99 | 1334.2 | –
288.15 K, x1 = 0.4001 | 774.72 | 1340.2 | –
288.15 K, x1 = 0.5004 | 780.57 | 1346.3 | –
288.15 K, x1 = 0.5996 | 786.46 | 1352.5 | –
288.15 K, x1 = 0.7005 | 792.54 | 1359.2 | –
288.15 K, x1 = 0.7996 | 798.63 | 1365.9 | –
288.15 K, x1 = 0.8997 | 804.88 | 1373 | –
288.15 K, x1 = 1 | 811.34 | 1380.4 | –
293.15 K, x1 = 0.1002 | – | – | 1.53
293.15 K, x1 = 0.1009 | 754.24 | 1303.2 | –
293.15 K, x1 = 0.1998 | 759.72 | 1308.8 | –
293.15 K, x1 = 0.201 | – | – | 1.58
293.15 K, x1 = 0.3 | – | – | 1.64
293.15 K, x1 = 0.3001 | 765.39 | 1314.7 | –
293.15 K, x1 = 0.3998 | – | – | 1.7
293.15 K, x1 = 0.4001 | 771.13 | 1320.7 | –
293.15 K, x1 = 0.5002 | – | – | 1.76
293.15 K, x1 = 0.5004 | 776.99 | 1326.9 | –
293.15 K, x1 = 0.5996 | 782.88 | 1333.2 | –
293.15 K, x1 = 0.5999 | – | – | 1.83
293.15 K, x1 = 0.6998 | – | – | 1.91
293.15 K, x1 = 0.7005 | 788.97 | 1339.8 | –
293.15 K, x1 = 0.7996 | 795.06 | 1346.5 | –
293.15 K, x1 = 0.8001 | – | – | 1.99
293.15 K, x1 = 0.8997 | 801.31 | 1353.4 | –
293.15 K, x1 = 0.8998 | – | – | 2.08
293.15 K, x1 = 1 | 807.76 | 1360.9 | 2.19
298.15 K, x1 = 0.1009 | 750.61 | 1283.8 | –
298.15 K, x1 = 0.1998 | 756.11 | 1289.4 | –
298.15 K, x1 = 0.3001 | 761.78 | 1295.3 | –
298.15 K, x1 = 0.4001 | 767.53 | 1301.3 | –
298.15 K, x1 = 0.5004 | 773.39 | 1307.5 | –
298.15 K, x1 = 0.5996 | 779.29 | 1313.8 | –
298.15 K, x1 = 0.7005 | 785.38 | 1320.4 | –
298.15 K, x1 = 0.7996 | 791.48 | 1327.1 | –
298.15 K, x1 = 0.8997 | 797.74 | 1334 | –
298.15 K, x1 = 1 | 804.19 | 1341.4 | –
303.15 K, x1 = 0.1002 | – | – | 1.3
303.15 K, x1 = 0.1009 | 746.99 | 1264.6 | –
303.15 K, x1 = 0.1998 | 752.5 | 1270.2 | –
303.15 K, x1 = 0.201 | – | – | 1.34
303.15 K, x1 = 0.3 | – | – | 1.38
303.15 K, x1 = 0.3001 | 758.17 | 1276.1 | –
303.15 K, x1 = 0.3998 | – | – | 1.43
303.15 K, x1 = 0.4001 | 763.92 | 1282.1 | –
303.15 K, x1 = 0.5002 | – | – | 1.48
303.15 K, x1 = 0.5004 | 769.79 | 1288.3 | –
303.15 K, x1 = 0.5996 | 775.7 | 1294.6 | –
303.15 K, x1 = 0.5999 | – | – | 1.54
303.15 K, x1 = 0.6998 | – | – | 1.6
303.15 K, x1 = 0.7005 | 781.79 | 1301.2 | –
303.15 K, x1 = 0.7996 | 787.89 | 1307.8 | –
303.15 K, x1 = 0.8001 | – | – | 1.66
303.15 K, x1 = 0.8997 | 794.16 | 1314.7 | –
303.15 K, x1 = 0.8998 | – | – | 1.74
303.15 K, x1 = 1 | 800.61 | 1322.1 | 1.79
313.15 K, x1 = 0.1002 | – | – | 1.11
313.15 K, x1 = 0.1009 | 739.73 | 1226.8 | –
313.15 K, x1 = 0.1998 | 745.25 | 1232.4 | –
313.15 K, x1 = 0.201 | – | – | 1.14
313.15 K, x1 = 0.3 | – | – | 1.17
313.15 K, x1 = 0.3001 | 750.94 | 1238.3 | –
313.15 K, x1 = 0.3998 | – | – | 1.21
313.15 K, x1 = 0.4001 | 756.7 | 1244.3 | –
313.15 K, x1 = 0.5002 | – | – | 1.25
313.15 K, x1 = 0.5004 | 762.59 | 1250.5 | –
313.15 K, x1 = 0.5996 | 768.5 | 1256.8 | –
313.15 K, x1 = 0.5999 | – | – | 1.3
313.15 K, x1 = 0.6998 | – | – | 1.34
313.15 K, x1 = 0.7005 | 774.6 | 1263.4 | –
313.15 K, x1 = 0.7996 | 780.72 | 1270.1 | –
313.15 K, x1 = 0.8001 | – | – | 1.4
313.15 K, x1 = 0.8997 | 786.99 | 1276.9 | –
313.15 K, x1 = 0.8998 | – | – | 1.46
313.15 K, x1 = 1 | 793.43 | 1284.2 | 1.52
323.15 K, x1 = 0.1002 | – | – | 0.958
323.15 K, x1 = 0.1009 | 732.44 | 1189.7 | –
323.15 K, x1 = 0.1998 | 737.97 | 1195.4 | –
323.15 K, x1 = 0.201 | – | – | 0.986
323.15 K, x1 = 0.3 | – | – | 1.01
323.15 K, x1 = 0.3001 | 743.68 | 1201.3 | –
323.15 K, x1 = 0.3998 | – | – | 1.05
323.15 K, x1 = 0.4001 | 749.46 | 1207.4 | –
323.15 K, x1 = 0.5002 | – | – | 1.08
323.15 K, x1 = 0.5004 | 755.35 | 1213.6 | –
323.15 K, x1 = 0.5996 | 761.28 | 1219.8 | –
323.15 K, x1 = 0.5999 | – | – | 1.12
323.15 K, x1 = 0.6998 | – | – | 1.15
323.15 K, x1 = 0.7005 | 767.39 | 1226.4 | –
323.15 K, x1 = 0.7996 | 773.52 | 1233.1 | –
323.15 K, x1 = 0.8001 | – | – | 1.2
323.15 K, x1 = 0.8997 | 779.8 | 1239.8 | –
323.15 K, x1 = 0.8998 | – | – | 1.25
323.15 K, x1 = 1 | 786.25 | 1247.1 | 1.3
333.15 K, x1 = 0.1002 | – | – | 0.833
333.15 K, x1 = 0.1009 | 725.11 | 1153.6 | –
333.15 K, x1 = 0.1998 | 730.66 | 1159.3 | –
333.15 K, x1 = 0.201 | – | – | 0.855
333.15 K, x1 = 0.3 | – | – | 0.88
333.15 K, x1 = 0.3001 | 736.38 | 1165.3 | –
333.15 K, x1 = 0.3998 | – | – | 0.906
333.15 K, x1 = 0.4001 | 742.18 | 1171.3 | –
333.15 K, x1 = 0.5002 | – | – | 0.935
333.15 K, x1 = 0.5004 | 748.09 | 1177.6 | –
333.15 K, x1 = 0.5996 | 754.02 | 1183.9 | –
333.15 K, x1 = 0.5999 | – | – | 0.966
333.15 K, x1 = 0.6998 | – | – | 1
333.15 K, x1 = 0.7005 | 760.16 | 1190.5 | –
333.15 K, x1 = 0.7996 | 766.29 | 1197.1 | –
333.15 K, x1 = 0.8001 | – | – | 1.04
333.15 K, x1 = 0.8997 | 772.58 | 1203.6 | –
333.15 K, x1 = 0.8998 | – | – | 1.07
333.15 K, x1 = 1 | 779.05 | 1211 | 1.12
